# PubChem BioAssay (NCI)
#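 Five concentrations, 48 hours, 96-well plates. GI50 is the concentration that inhibits growth by half. TGI denotes the concentration required for complete inhibition of growth.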
# Assays:
# Experiment in all cases: DTP human tumour cell line panel, 48 h
# [1] = system: HCT-116 colon
# [2] = system: 786-0 renal
# [3] = system: EKVX NSCLC
# [4] = system: A498 renal
# [5] = system: SF-539 CNS
# [6] = system: U251 CNS
# [7] = system: HCC-2998 colon
# [8] = system: M14 melanoma
# [9] = system: OVCAR-3 ovarian
# [10] = system: SNB-75 CNS
# [11] = system: HS 578T breast
SMILES,TGI [1],TGI [2],TGI [3],TGI [4],TGI [5],TGI [6],TGI [7],TGI [8],TGI [9],TGI [10],TGI [11],GI50 [1],GI50 [5],GI50 [9]
O=C1CC(Br)c2c(Cl)sc(Cl)c21 (centres undefined),16.9 µM,8.91 µM,48.2 µM,38.4 µM,> 100 µM,10.4 µM,24.4 µM,26.5 µM,6.32 µM,30.5 µM,47 µM,,,
CC(SC(=S)N1CCCCC1)C(=O)Nc1nnc(-c2ccc(Cl)cc2)o1 (centres undefined),40.3 µM,47.5 µM,,88.6 µM,> 100 µM,> 100 µM,> 100 µM,53.7 µM,64.2 µM,> 100 µM,> 100 µM,,,
Oc1cc(Cl)cc2cc(Br)cnc12,> 100 µM,> 100 µM,> 64.2 µM,> 88.7 µM,> 100 µM,98.1 µM,> 73.9 µM,6 µM,7.9 µM,> 100 µM,> 100 µM,,,
O=[N+]([O-])CC(SCc1ccccc1)c1ccc2c(c1)OCO2 (centres undefined),4.46 µM,3.42 µM,39.5 µM,18.8 µM,10.9 µM,18.7 µM,10.5 µM,13.1 µM,18.3 µM,30.6 µM,18.2 µM,,,
CCCCCCOc1ccc(NC2=C(Cl)C(=O)c3cccnc3C2=O)cc1,2.09 µM,2.8 µM,3.22 µM,> 10 µM,4.19 µM,7.29 µM,3.1 µM,2.87 µM,2.85 µM,2.79 µM,> 10 µM,,,
O=C1Oc2ccccc2C(=O)/C1=C/N1C(=O)/C(=C/c2ccc([N+](=O)[O-])cc2)SC1=S,50.2 µM,> 100 µM,> 100 µM,27.6 µM,45 µM,> 100 µM,42.2 µM,65.6 µM,5.85 µM,54.3 µM,34.3 µM,,,
COC(=O)c1ccc2n1C1CC3CC(CC2C3)C1,> 100 µM,> 100 µM,> 100 µM,> 100 µM,> 100 µM,> 100 µM,> 100 µM,> 100 µM,> 100 µM,> 100 µM,> 100 µM,,,
NC(=O)c1n[nH]n(-c2ccccc2)c1=O,> 100 µM,> 100 µM,> 100 µM,> 100 µM,> 100 µM,> 100 µM,> 100 µM,> 100 µM,> 100 µM,> 100 µM,> 100 µM,,,
CC(=O)Oc1ccn2nc(C)c(Br)c2c1Br,> 58.7 µM,> 100 µM,> 58.5 µM,72.9 µM,45.7 µM,> 100 µM,49.9 µM,34.7 µM,33.4 µM,> 56.2 µM,> 100 µM,,,
O=[N+]([O-])c1ccc(Cl)cc1C1ON=C(c2ccccc2)N1C12CC3CC(CC(C3)C1)C2 (centres undefined),> 100 µM,> 100 µM,> 100 µM,> 100 µM,> 100 µM,> 100 µM,> 100 µM,> 100 µM,> 100 µM,> 100 µM,> 100 µM,,,
COc1nn(Cc2ccccc2F)c2ccc([N+](=O)[O-])cc12,> 100 µM,> 100 µM,> 100 µM,> 92.3 µM,> 100 µM,> 100 µM,> 100 µM,> 100 µM,> 100 µM,> 100 µM,> 100 µM,,,
CC1=C(C2=C(C)C(=O)C(=O)c3cc(C)ccc32)c2ccc(C)cc2C(=O)C1=O,1 µM,1.45 µM,0.686 µM,3.25 µM,0.346 µM,0.685 µM,0.298 µM,0.349 µM,0.323 µM,0.868 µM,0.863 µM,,,
Oc1ccc(-c2nc3cc(C(F)(F)F)ccc3n2CC2CCCN3CCCCC23)cc1 (centres undefined),29.3 µM,30.7 µM,31 µM,29.3 µM,34.6 µM,28 µM,21.5 µM,32.3 µM,27 µM,32.4 µM,31.5 µM,,,
C[n+]1c2ccccc2c(CNC(CCC(N)=O)C(=O)O)c2ccccc21 (centres undefined),1.21 µM,3.22 µM,12.9 µM,6.93 µM,5.61 µM,12.8 µM,11.2 µM,12.2 µM,6.78 µM,12.5 µM,21.8 µM,,,
COC(=O)C1OC(O[C@H]2CC[C@]3(C)[C@H]4CC=C5[C@@H]6CC(C)(C)CC[C@]6(C(=O)OC)[C@H](O)C[C@@]5(C)[C@]4(C)CC[C@H]3C2(C)C)C(O)C(O)C1O (some centres undefined),17 µM,20.9 µM,21.4 µM,26.1 µM,,23.9 µM,8.64 µM,18.3 µM,22.1 µM,28.1 µM,34.1 µM,,,
CC(C)(C)NC(NC(C)(C)C)=C(C(Cl)=C(Cl)Cl)[N+](=O)[O-],> 100 µM,> 100 µM,> 100 µM,> 100 µM,> 100 µM,> 100 µM,> 100 µM,> 100 µM,> 100 µM,> 100 µM,> 100 µM,,,
N#Cc1c(=O)c2cc([N+](=O)[O-])ccc2n2c1[nH]c1ccccc12,> 40.1 µM,> 100 µM,> 100 µM,> 93.1 µM,> 100 µM,> 92.6 µM,> 100 µM,> 64.6 µM,> 55.7 µM,> 100 µM,> 74.9 µM,,,
CCOC(=O)CCC(NC(=O)c1ccc(CNc2nc3cc(N)cc(N)c3nc2-c2ccccc2)cc1)C(=O)OCC (centres undefined),> 100 µM,> 100 µM,> 100 µM,> 100 µM,> 100 µM,> 100 µM,> 100 µM,> 61.6 µM,> 100 µM,> 100 µM,> 100 µM,,,
N#CCCC(CC#N)N1CCN(CCO)CC1 (centres undefined),> 100 µM,> 100 µM,> 100 µM,> 100 µM,> 100 µM,> 100 µM,> 100 µM,> 100 µM,,> 100 µM,> 100 µM,,,

SMILES,TGI [1],TGI [2],TGI [3],TGI [4],TGI [5],TGI [6],TGI [7],TGI [8],TGI [9],TGI [10],TGI [11],GI50 [1],GI50 [5],GI50 [9]
CC1=C/C(=N/N2C(=O)/C(=C/c3ccc(Cl)cc3)N=C2c2ccccc2)CC(C)(C)C1,> 100 µM,> 100 µM,> 100 µM,> 100 µM,> 100 µM,69.7 µM,> 100 µM,> 100 µM,,93.6 µM,> 100 µM,,,
NC1CC2C3CCC2C1C3=O (centres undefined),> 100 µM,> 100 µM,> 100 µM,> 100 µM,> 100 µM,> 100 µM,> 100 µM,> 100 µM,> 100 µM,> 100 µM,> 100 µM,,,
C=C1C(=O)OC2/C=C(\C)C(O)CC(O)C(C)(O)CC(OC(=O)/C(C)=C/C)C12 (centres undefined),> 100 µM,> 100 µM,> 100 µM,> 84.3 µM,> 100 µM,> 100 µM,> 100 µM,> 100 µM,> 100 µM,> 94.2 µM,> 100 µM,,,
C=CCN1C(=O)/C(=C/c2ccc(C)cc2)N=C1SC/C=C/C,> 100 µM,> 100 µM,> 100 µM,84.9 µM,> 100 µM,77.6 µM,> 100 µM,> 100 µM,> 100 µM,70.1 µM,> 100 µM,,,
Cc1cc2c(cc1O)CC[C@@H]1[C@@H]2CC[C@]2(C)[C@@H](O)CC[C@@H]12,13.4 µM,30.9 µM,,37.9 µM,19.8 µM,18.2 µM,24.1 µM,21.4 µM,22.1 µM,23.9 µM,7.17 µM,3.63 µM,7.46 µM,9.14 µM
O=C(O)c1c(-c2c3ccc(=O)cc-3oc3cc(O)ccc23)cc2ccccc2c1-c1ccccc1,> 100 µM,> 100 µM,> 100 µM,> 100 µM,> 100 µM,> 100 µM,> 68.4 µM,> 100 µM,> 100 µM,> 100 µM,> 100 µM,,,
COc1cccc(NCC(=O)Nn2c(-c3ccccc3)nc3ccccc3c2=O)c1,> 100 µM,> 100 µM,> 100 µM,85 µM,> 100 µM,> 100 µM,> 100 µM,> 100 µM,> 100 µM,> 100 µM,> 100 µM,,,
CC(C)CCCC(C)[C@H]1CC[C@H]2[C@@H]3CC[C@H]4C[C@@H](CCC=C(c5cc(Cl)c(O)c(C(=O)OC(C)(C)C)c5)c5cc(Cl)c(O)c(C(=O)OC(C)(C)C)c5)CC[C@]4(C)[C@H]3CC[C@]12C (some centres undefined),> 50 µM,> 50 µM,> 50 µM,> 50 µM,> 50 µM,> 50 µM,> 50 µM,> 50 µM,> 50 µM,> 50 µM,> 50 µM,,,
CCCn1cnc2c(NN=O)ncnc21,> 100 µM,> 100 µM,> 100 µM,> 100 µM,> 100 µM,> 100 µM,> 100 µM,> 100 µM,> 100 µM,> 100 µM,> 100 µM,,,
Oc1ccc2c(c1)OCC(O)(c1ccccc1O)C2 (centres undefined),> 100 µM,> 100 µM,> 100 µM,> 100 µM,> 100 µM,> 100 µM,> 100 µM,> 100 µM,> 100 µM,> 100 µM,> 100 µM,,,
O=c1c2cc(Br)ccc2oc2nc3n(c(=O)c12)CCCS3,> 100 µM,> 100 µM,> 100 µM,> 100 µM,> 100 µM,> 100 µM,> 100 µM,> 100 µM,> 100 µM,> 100 µM,> 100 µM,,,
Cn1c(N2CCCC2)c(C=O)c(=O)n(C)c1=O,> 100 µM,> 100 µM,> 100 µM,> 100 µM,> 100 µM,> 100 µM,> 100 µM,> 100 µM,> 100 µM,93 µM,> 100 µM,,,
N[C@@H]1c2c(Br)sc(Br)c2[C@H](O)[C@@H]1O,> 100 µM,> 100 µM,> 100 µM,> 100 µM,> 100 µM,> 100 µM,> 100 µM,> 100 µM,> 100 µM,> 100 µM,> 100 µM,,,
OC1C(O)C(O)C(O)C(O)C1O (centres undefined),> 1000 µM,> 1000 µM,,> 1000 µM,> 1000 µM,> 1000 µM,> 1000 µM,> 1000 µM,> 1000 µM,> 1000 µM,> 1000 µM,,,
N=c1c2c3n(c4c(=O)n(-c5ccccc5)c(=S)n(c(=O)n1-c1ccccc1)c24)CCCCC3,> 100 µM,> 100 µM,> 100 µM,> 100 µM,> 100 µM,> 100 µM,> 100 µM,> 100 µM,> 100 µM,> 100 µM,> 100 µM,,,
C#CC(O)/C=C/CCCCCCC#CC/C=C\CC#CCCCCCC/C=C/C(O)C#C (centres undefined),4.02 µM,5.23 µM,5.23 µM,9.06 µM,41.2 µM,26 µM,3.39 µM,2.26 µM,7.99 µM,20.9 µM,15 µM,,,
COC(=O)C(NC(=O)CNC(=O)CSc1nnc(COc2ccc(Cl)cc2)n1-c1ccccc1)C(C)C (centres undefined),31.4 µM,32.5 µM,> 100 µM,56.7 µM,31.9 µM,35.5 µM,34 µM,38.5 µM,31.6 µM,37.5 µM,62.9 µM,,,
COc1ccc(-c2cc(-c3ccc(Nc4ccnc5cc(C(F)(F)F)ccc45)cc3)[nH]c(=O)c2C#N)c2ccccc12,> 100 µM,> 100 µM,> 100 µM,> 58.4 µM,> 53.7 µM,> 36.4 µM,> 100 µM,> 70.7 µM,> 100 µM,29.9 µM,> 100 µM,,,
